The source of these data is publication PMC4520450, “Procyanidins Negatively Affect the Activity of the Phosphatases of Regenerating Liver” (PLoS ONE, 2015).

The test system of experiment [1] is HEK293 empty vector cell line. As to the kind of experiment: Transwell cell migration assay. The experiment is classed as cell-based. The note with it: 16 h, empty vector cells. How it is done: (§1) To study if procyanidin C2 is able to inhibit PRL-1 and PRL-3 in cells, HEK293 cells were treated in a wound-healing assay (see the experimental procedures). […] As a control the empty vector cell line was again utilized. […] The migration speed was for all cell lines similar when treated with 50 μM of 9. To further corroborate these findings we performed additionally a transwell assay as an alternative way to study cell migration.
(§2) Fig 6 Wound healing abilities of PRL-1 or PRL-3 overexpressing or empty vector control HEK293 cell lines were analyzed in the presence of compound 9 or medium only. Cells were seeded at a concentration of 800,000 cells per insert and procyanidin C2 (9) was added at a concentration of 25 and 50 μM. A) Pictures of the wound gaps were taken at 0 h and 7 h for both conditions (with and without treatment). B) Quantification of the wound healing experiment. Speed of migration is shown for combined data from different replicates, as mean ± SD (n = 38–88). Two-sided t-tests with Welsh correction were performed for p < 0.05. ns = not significant;***: < 0.001; **: < 0.01; *: < 0.05. C) Effect of polyphenolic compounds in a transwell assay on the cell migration of HEK293 empty vector and PRL-3 overexpressing cell lines. Cells were seeded at a concentration of 100,000 cells per insert and procyanidin C2 (9) was added at a final concentration of 25 and 50 μM. Migration was allowed for 16 h before harvesting and staining with calcein AM for fluorescent readout. Mean ± SD (n = 60–72) is shown for combined data from different replicates. Two-sided t-tests with Welsh correction were performed for p < 0.05. ns = not significant. D) Quantification of wound healing experiment including blocking PRL-1 and PRL-3 with analog 3. Speed of migration is shown for combined data from different replicates, as mean ± SD (n = 63–82). Two-sided t-tests with Welsh correction were performed for p < 0.05.
(§3) HEK293 empty vector, PRL-1 and PRL-3 overexpressing cells were kept in selection medium (DMEM medium without Phenol red, supplemented with 10% FBS, 1% glutamine and 0.2% hygromycin and blasticidin) for one week until full confluency. Then, 0.1% tetracycline (1 mg/ml stock solution in ethanol) was added for induction of PRL-1 and PRL-3 expression in HEK293 PRL-1 and HEK PRL-3 wt 24 h prior plating on transwell inserts. For comparison, HEK293 empty vector was also treated with tetracycline. After 24 h, the medium was removed, cells were washed with PBS and starvation medium supplemented with 0.1% tetracycline was added. […] Then, 3x100 μL were taken from each well and transferred to a black assay plates and the relative concentration of the fluorescent product formed in the cells was determined by following the emission at 520 nm with excitation at 452 nm. […]

Experiment [2] relates to PRL-3 overexpressing HEK293 cell line. Put plainly: Transwell cell migration assay. The note with it: 16 h, PRL-3 overexpressing cells. The experiment is classed as cell-based. How it is done: as §1, §2, §3

Molecules are shown by their SMILES.

As to `Oc1cc(O)c2c(c1)O[C@H](c1ccc(O)c(O)c1)[C@@H](O)[C@@H]2c1c(O)cc(O)c2c1O[C@H](c1ccc(O)c(O)c1)[C@@H](O)[C@@H]2c1c(O)cc(O)c2c1O[C@H](c1ccc(O)c(O)c1)[C@@H](O)C2` [Procyanidin C2 (9), Procyanidin C2], the “cell migration, transwell” value in experiment [1] (25 μM) is “did not lead to a significant change in cell migration”; in experiment [1] (50 μM), “significant increase in cell migration”; in experiment [2] (25 μM), “did not lead to a significant change in cell migration”; in experiment [2] (50 μM), “significant decrease in migration”.
